In PMC9848300, “Discovery of novel enasidenib analogues targeting inhibition of mutant isocitrate dehydrogenase 2 as antileukaemic agents” (Journal of Enzyme Inhibition and Medicinal Chemistry, 2023):

Key:
[1] = system: EKVX; experiment: NCI 60 antitumor screening (single dose / five doses); type: cell-based; settings: Homo sapiens
[2] = system: MDA-MB-231/ATCC; experiment: as above; type: cell-based; settings: Homo sapiens
[3] = system: RXF 393; experiment: as above; type: cell-based; settings: Homo sapiens
[4] = system: HCC-2998; experiment: NCI 60 antitumor screening (single dose); type: cell-based; settings: Homo sapiens; HCC-2998 (colon cancer), single dose 10 μM; read-out: Growth inhibition percentage (GI %)
Method in brief: (§1)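 GI% derived as 100 − G% from triplicate growth measurements in the NCI 60 human tumour panel, compound 10 μM, single dose, per NCI protocol.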

[5] = system: NCI-H460; experiment: NCI 60 antitumor screening (single dose); type: cell-based; settings: Homo sapiens; NCI-H460 (non-small cell lung cancer), single dose 10 μM; read-out: Growth inhibition percentage (GI %)
Method in brief: as §1

[6] = system: TK-10; experiment: NCI 60 antitumor screening (single dose); type: cell-based; settings: Homo sapiens; TK-10 (renal cancer), single dose 10 μM; read-out: Growth inhibition percentage (GI %)
Method in brief: (§2)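 Assessment used the first tier of the NCI 60 screen, one dose of 10 μM per compound. Triplicate experiments gave percent growth of treated cells. Inhibition was then derived as 100 − G%.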

[7] = system: OVCAR-8; experiment: NCI 60 antitumor screening (single dose); type: cell-based; settings: Homo sapiens; OVCAR-8 (ovarian cancer), single dose 10 μM; read-out: Growth inhibition percentage (GI %)
Method in brief: as §2

[8] = system: PC-3; experiment: NCI 60 antitumor screening (single dose); type: cell-based; settings: Homo sapiens; PC-3 (prostate cancer), single dose 10 μM; read-out: Growth inhibition percentage (GI %)
Method in brief: as §2

[9] = system: HOP-62; experiment: NCI 60 antitumor screening (single dose); type: cell-based; settings: Homo sapiens; HOP-62 (non-small cell lung cancer), single dose 10 μM; read-out: Growth inhibition percentage (GI %)
Method in brief: as §1

[10] = system: HT29; experiment: NCI 60 antitumor screening (single dose / five doses); type: cell-based, human; settings: Homo sapiens
[11] = system: UACC-62; experiment: as above; type: cell-based; settings: Homo sapiens
[12] = system: MOLT-4; experiment: as above; type: cell-based; settings: Homo sapiens; MOLT-4 (leukaemia), single dose 10 μM; read-out: Growth inhibition percentage (GI %)
[13] = system: K-562; experiment: as above; type: cell-based; settings: Homo sapiens, K562
[14] = system: BT-549; experiment: as above; type: cell-based; settings: Homo sapiens
[15] = system: SW-620; experiment: as above; type: cell-based, human; settings: Homo sapiens
[16] = system: LOX IMVI; experiment: as above; type: cell-based; settings: Homo sapiens
[17] = system: MDA-MB-468; experiment: as above; type: cell-based; settings: Homo sapiens
[18] = system: IGROV1; experiment: as above; type: cell-based; settings: Homo sapiens, IGROV-1
[19] = system: HCT-15; experiment: as above; type: cell-based; settings: Homo sapiens
[20] = system: HL-60(TB); experiment: as above; type: cell-based; settings: Homo sapiens
[21] = system: ACHN; experiment: as above; type: cell-based; settings: Homo sapiens
[22] = system: COLO 205; experiment: as above; type: cell-based; settings: Homo sapiens
[23] = system: SK-MEL-5; experiment: as above; type: cell-based; settings: Homo sapiens
[24] = system: SF-295; experiment: as above; type: cell-based; settings: Homo sapiens
[25] = system: UACC-257; experiment: as above; type: cell-based; settings: Homo sapiens
[26] = system: RPMI-8226; experiment: as above; type: cell-based; settings: Homo sapiens
[27] = system: 786-0; experiment: as above; type: cell-based; settings: Homo sapiens
[28] = system: UO-31; experiment: as above; type: cell-based; settings: Homo sapiens

**Q.** For Fc1cccc(Cl)c1/C=N/Nc1nc(N/N=C/c2c(F)cccc2Cl)nc(N2CCCCC2)n1 [compound 7l, 2,4-Bis[(E)-2-[(2-Chloro-6-fluorophenyl)methylidene]hydrazin-1-yl]-6-(piperidin-1-yl)-1,3,5-triazine], which inhibition at 10 µM ([1]; EKVX (non-small cell lung cancer), single dose 10 μM, read-out: Growth inhibition percentage (GI %)) is on record?
**A.** 86.2%

**Q.** What about the GI50 ([1]; EKVX, five doses (0.01–100 μM), read-out: GI50) of the same compound?
**A.** 1540 nM

**Q.** And the GI50 ([2]; MDA-MB-231/ ATCC, five doses (0.01–100 μM), read-out: GI50)?
**A.** 7.65 µM

**Q.** And the inhibition at 10 µM ([2]; MDA-MB-231/ATCC (breast cancer), single dose 10 μM, read-out: Growth inhibition percentage (GI %))?
**A.** 57.9%

**Q.** What about the inhibition at 10 µM ([3]; RXF 393 (renal cancer), single dose 10 μM, read-out: Growth inhibition percentage (GI %)) of the same compound?
**A.** 96.6%

**Q.** What about the GI50 ([3]; RXF 393, five doses (0.01–100 μM), read-out: GI50) of the same compound?
**A.** 2650 nM

**Q.** What about the inhibition at 10 µM [4] of the same compound?
**A.** 75.7%

**Q.** And the inhibition at 10 µM [5]?
**A.** 80.1%

**Q.** And the inhibition at 10 µM [6]?
**A.** 72.8%

**Q.** What about the inhibition at 10 µM [7] of the same compound?
**A.** 74.2%

**Q.** And the inhibition at 10 µM [8]?
**A.** 81.3%

**Q.** What about the inhibition at 10 µM [9] of the same compound?
**A.** 74.1%

**Q.** What about the GI50 ([10]; HT-29, HT29, five doses (0.01–100 μM), read-out: GI50) of the same compound?
**A.** 2900 nM

**Q.** What about the inhibition at 10 µM ([10]; HT-29, HT29 (colon cancer), single dose 10 μM, read-out: Growth inhibition percentage (GI %)) of the same compound?
**A.** 96.5%

**Q.** And the inhibition at 10 µM ([11]; UACC-62 (melanoma), single dose 10 μM, read-out: Growth inhibition percentage (GI %))?
**A.** 81.7%

**Q.** And the GI50 ([11]; UACC-62, five doses (0.01–100 μM), read-out: GI50)?
**A.** 2350 nM

**Q.** What about the inhibition at 10 µM [12] of the same compound?
**A.** 86.3%

**Q.** And the inhibition at 10 µM ([13]; K-562 (leukaemia), single dose 10 μM, read-out: Growth inhibition percentage (GI %))?
**A.** 67.7%

**Q.** And the GI50 ([13]; K-562, five doses (0.01–100 μM), read-out: GI50)?
**A.** 3.08 µM

**Q.** And the inhibition at 10 µM ([14]; BT-549 (breast cancer), single dose 10 μM, read-out: Growth inhibition percentage (GI %))?
**A.** 31.6%

**Q.** What about the GI50 ([14]; BT-549, five doses (0.01–100 μM), read-out: GI50) of the same compound?
**A.** 4.45 µM

**Q.** And the GI50 ([15]; SW-620, SW-620, five doses (0.01–100 μM), read-out: GI50)?
**A.** 3.51 µM

**Q.** And the inhibition at 10 µM ([15]; SW-620 (colon cancer), single dose 10 μM, read-out: Growth inhibition percentage (GI %))?
**A.** 82.8%

**Q.** And the inhibition at 10 µM ([16]; LOX IMVI (melanoma), single dose 10 μM, read-out: Growth inhibition percentage (GI %))?
**A.** 80.4%

**Q.** What about the GI50 ([16]; LOX IMVI, five doses (0.01–100 μM), read-out: GI50) of the same compound?
**A.** 3.77 µM

**Q.** What about the inhibition at 10 µM ([17]; MDA-MB-468 (breast cancer), single dose 10 μM, read-out: Growth inhibition percentage (GI %)) of the same compound?
**A.** 114%

**Q.** And the GI50 ([17]; MDA-MB-468, five doses (0.01–100 μM), read-out: GI50)?
**A.** 1860 nM

**Q.** And the inhibition at 10 µM ([18]; IGROV1 (ovarian cancer), single dose 10 μM, read-out: Growth inhibition percentage (GI %))?
**A.** 82.3%

**Q.** And the GI50 ([18]; IGROV1, five doses (0.01–100 μM), read-out: GI50)?
**A.** 3.16 µM

**Q.** What about the inhibition at 10 µM ([19]; HCT-15 (colon cancer), single dose 10 μM, read-out: Growth inhibition percentage (GI %)) of the same compound?
**A.** 96.1%

**Q.** What about the GI50 ([19]; HCT-15, five doses (0.01–100 μM), read-out: GI50) of the same compound?
**A.** 2820 nM

**Q.** And the inhibition at 10 µM ([20]; HL-60(TB) (leukaemia), single dose 10 μM, read-out: Growth inhibition percentage (GI %))?
**A.** 98.7%

**Q.** What about the GI50 ([20]; HL-60(TB), five doses (0.01–100 μM), read-out: GI50) of the same compound?
**A.** 2000 nM

**Q.** And the inhibition at 10 µM ([21]; ACHN (renal cancer), single dose 10 μM, read-out: Growth inhibition percentage (GI %))?
**A.** 95.8%

**Q.** What about the GI50 ([21]; ACHN, five doses (0.01–100 μM), read-out: GI50) of the same compound?
**A.** 3.04 µM

**Q.** What about the inhibition at 10 µM ([22]; COLO 205 (colon cancer), single dose 10 μM, read-out: Growth inhibition percentage (GI %)) of the same compound?
**A.** 117%

**Q.** And the GI50 ([22]; COLO 205, five doses (0.01–100 μM), read-out: GI50)?
**A.** 1780 nM

**Q.** What about the inhibition at 10 µM ([23]; SK-MEL-5 (melanoma), single dose 10 μM, read-out: Growth inhibition percentage (GI %)) of the same compound?
**A.** 41%

**Q.** What about the GI50 ([23]; SK-MEL-5, five doses (0.01–100 μM), read-out: GI50) of the same compound?
**A.** 1880 nM

**Q.** What about the inhibition at 10 µM ([24]; SF-295 (CNS cancer), single dose 10 μM, read-out: Growth inhibition percentage (GI %)) of the same compound?
**A.** 97.4%

**Q.** And the GI50 ([24]; SF-295, five doses (0.01–100 μM), read-out: GI50)?
**A.** 1010 nM

**Q.** And the inhibition at 10 µM ([25]; UACC-257 (melanoma), single dose 10 μM, read-out: Growth inhibition percentage (GI %))?
**A.** 88.3%

**Q.** What about the GI50 ([25]; UACC-257, five doses (0.01–100 μM), read-out: GI50) of the same compound?
**A.** 2390 nM

**Q.** And the inhibition at 10 µM ([26]; RPMI-8226 (leukaemia), single dose 10 μM, read-out: Growth inhibition percentage (GI %))?
**A.** 96.7%

**Q.** And the GI50 ([26]; RPMI-8226, five doses (0.01–100 μM), read-out: GI50)?
**A.** 2260 nM

**Q.** What about the inhibition at 10 µM ([27]; 786-0, 786-0 (renal cancer), single dose 10 μM, read-out: Growth inhibition percentage (GI %)) of the same compound?
**A.** 71.7%

**Q.** What about the GI50 ([27]; 786-0, five doses (0.01–100 μM), read-out: GI50) of the same compound?
**A.** 3.44 µM

**Q.** What about the inhibition at 10 µM ([28]; UO-31 (renal cancer), single dose 10 μM, read-out: Growth inhibition percentage (GI %)) of the same compound?
**A.** 91%

**Q.** What about the GI50 ([28]; UO-31, five doses (0.01–100 μM), read-out: GI50) of the same compound?
**A.** 2010 nM
